Values quoted from earlier work as cited in patent US20160279133A1 (Farmalider, S.A., priority 2015, published 2016).
Counter-ions that a name gives are not always drawn.

Legend:
male sexual dysfunction = conditions: administered orally

SMILES | solubility in water | efficacy in the treatment of male sexual dysfunction (male sexual dysfunction)
CCCc1nn(C)c2c(=O)[nH]c(-c3cc(S(=O)(=O)N4CCN(C)CC4)ccc3OCC)nc12 [Sildenafil citrate] | relatively insoluble | 
CCCc1nn(C)c2c(=O)[nH]c(-c3cc(S(=O)(=O)N4CCN(C)CC4)ccc3OCC)nc12 [Sildenafil, 5-[2-ethoxy-5-(4-methylpiperazin-1-yl-sulfonyl)phenyl]-1-methyl-3-n-propyl-1,6-dihydro-7H-pyrazolo[4,3-d]pyrimidin-7-one] |  | effective treatment
